Patent US20150366839A1, “Schisantherin A for the treatment of neurodegenerative diseases” (priority 2014, published 2015)
Like-named read-outs stand apart in the source and are kept apart here.

Legend:
zebrafish larvae = type: in vivo
Protocol: (§1) The wild type zebrafish was used for this study.
Zebrafish behaviour was analyzed using a digital video tracking system (Viewpoint ZebraLab system). The system consists of a digital video camera connected to a computer system running the analysis software ZebraLab Man Rev 3.6B.
Moreover, 6-OHDA treatment also markedly altered the swimming behavior of zebrafish. […] Values in FIG. 9 represent the mean±SEM of 12 fish larvae per group of 3-time independent experiments. ###P<0.005 versus control group; *p<0.05, **p<0.01 and *** p<0.005 versus 6-OHDA group. […] The total swimming distance in 10 min travelled by the zebrafish larvae was decreased after exposure to 6-OHDA.

DA neurons in zebrafish = assay: Anti-TH whole-mount immunostaining, 6-OHDA-induced DA neuron loss; type: in vivo; settings: 3 μM positive control, 250 μM 6-OHDA, 2 days
Protocol: as §1
Zebrafish at one dpf were exposed to 250 μM 6-OHDA in the presence or absence of 10 μM Schi A or 3 μM nomifensine (Nom, a DAT (dopamine transporter) inhibitor used as a positive control) for 2 days. Then zebrafish were collected for immunostaining to detect the DA neurons. Zebrafish were fixed in 4% paraformaldehyde in PBS for 30 min, rinsed, and stored at −20° C. in 100% MtOH. Whole-mount immunostaining was done by standard methods (Zhang, Cheang et al. 2011). Briefly, paraformaldehyde fixed samples were blocked (2% goat serum and 0.1% BSA in PBST,) for 1 h at room temperature. A mouse monoclonal anti-tyrosine hydroxylase antibody (1:200 diluted in blocking buffer) was used as the primary antibody and incubated overnight with the sample at 4° C. […] Semi-quantification TH^+ cells were assessed by an investigator blinded to drug treatment history of zebrafish using Image-Pro Plus 6.0 software (Media Cybernetics, Silver Spring, Md., USA). Results are expressed as percentage of area of TH^+ cells in untreated control group.
To further evaluate the neuroprotective effect of SchiA in vivo, the inventors examined the DA neurons in zebrafish by whole-mount immunofluorescent staining with an antibody against tyrosine hydroxylase (TH). […] Data is expressed as percentage of the control group. […]

SH-SY5Y cells [1] = assay: MTT cytotoxicity of the five lignans; type: cell-based
Protocol: (§2) Human neuroblastoma SH-SY5Y cells were purchased from the American Type Culture Collection (ATCC, Manassas, Va., USA) and cultured in a humidified 5% (v/v) CO2 atmosphere in 37° C. in Dulbecco's Modified Eagle Medium (DMEM) (Life technologies, NY, USA) supplemented with 10% FBS, 1% penicillin (100 U/mL) and streptomycin (100 μg/mL). All experiments were carried out 48 h after the cells were seeded.
(§3) Cell viability was determined by 3-(4,5-dimethyl-2-thiazolyl) 2,5-diphenyl-2H-tetrazolium bromide (MTT) assay (Sigma-Aldrich, USA). SH-SY5Y cells were seeded in 96-well plates (1×10^4 cells/well) for 48 h. SH-SY5Y cells were pre-treated with different concentrations of the five lignans (i.e. Schizandrin A, Schizandrin B, SC, Schizandrol A and SchiA) for 12 h and the cell viability was checked by MTT assay. Otherwise, SH-SY5Y cells were pre-treated with different concentrations of the five lignans for 12 h and then exposed to 400 μM 6-OHDA for 4 h. Cells were incubated at 37° C. for 4 h in 0.5 mg/mL MTT solution (prepared in serum free DMEM medium). The medium was then removed, and 100 μL of DMSO was added to each well to dissolve the violet-formazan crystals. The absorbance at 570 nm with 655 nm as a reference wavelength was measured by a multi-label counter (Wallac VICTOR3TMV, Perkin Elmer, Netherlands). Cell viability was expressed as a percentage of the value of the cells without 6-OHDA treatment. The LC50 and EC50 were calculated by GraphPad Prism V5.0 (GraphPad Software, Inc., San Diego, Calif.).
To evaluate the cytotoxicity of five selected lignans of S. chinensis, SH-SY5Y cells were treated with various concentrations of the tested compounds for 12 h and the cell viability was measured using the MTT assay.
(§4) To evaluate the cytotoxicity of five selected lignans of S. chinensis, SH-SY5Y cells were treated with various concentrations of the tested compounds for 12 h and the cell viability was measured using the MTT assay. […] To further study the neuroprotective activities of the five lignans in vitro, cells were treated with various concentrations of the tested compounds for 12 h before exposed to MPP^+. […] Values represent mean±S.D. ###P<0.005 versus control group; *p<0.05, **p<0.01 and *** p<0.005 versus MPP group. […] The therapeutic index of SchiA and SC were 14.9 and 8.8, respectively.

SH-SY5Y cells [2] = assay: MTT neuroprotection against 6-OHDA-induced cytotoxicity; type: cell-based, Human; settings: for protection against 6-OHDA-induced damage (cell viability): 3, 6, 12, 25, 50 and 100 μM for 12 h before 400 μM 6-OHDA 4 h
Protocol: as §2, §3
To further study the neuroprotective activities of the five lignans against 6-OHDA-induced cytotoxicity, cells were treated with various concentrations (3, 6, 12, 25, 50 and 100 μM) of the tested compounds for 12 h before exposed to 400 μM 6-OHDA for 4 h.

SH-SY5Y cells [3] = assay: MTT neuroprotection against MPP+-induced cell damage; type: cell-based; settings: for protection against MPP+-induced cell damage (cell viability): various concentrations 12 h before MPP+
Protocol: as §2
In another study, SH-SY5Y cells were seeded in 96-well plates (1×10^4 cells/well) for 48 h. SH-SY5Y cells were pre-treated with different concentrations of the five lignans for 12 h and the cell viability was checked by MTT assay. SH-SY5Y cells were pre-treated with different concentrations of the five lignans for 12 h and then exposed to 2 mM MPP or vehicle for 36 h. Cells were incubated at 37° C. for 4 h in 0.5 mg/mL MTT solution (prepared in serum free DMEM medium). The medium was then discarded and 100 μL of DMSO was added to each well to dissolve the violet-formazan crystals. The absorbance at 570 nm with 655 nm as a reference wavelength was measured by a multi-label counter (Wallac VICTOR3TMV, Perkin Elmer, Netherlands). Cell viability was expressed as a percentage of the value of the cells without MPP treatment. The LC50 and EC50 were calculated by GraphPad Prism V5.0 (GraphPad Software, Inc., San Diego, Calif.).
as §4
The inventors also investigated the contribution of the PI3K/Akt pathway in the neuroprotective effects of SchiA. The inventors measured phosphorylation-Akt (p-Akt) levels after pre-treated with 60 μM SchiA for 12 h and then exposed to 2 mM MPP for another 36 h. […] And MPP^+-induced down-regulation of Akt expressions was inhibited by SchiA treatment. […] To further validate whether the activation of PI3K/Akt signaling pathway, the inventors determined the blocking effect of PI3K/Akt inhibitor such as AKT inhibitor IV on the in vitro neuroprotective effect of SchiA. SH-SY5Y cells were pre-incubated with Akt inhibitor IV (2 μM) for 1 h and then treated with SchiA for 12 h. Drug-treated cells were further treated with 2 mM MPP for another 36 h, MTT assay was used to determinate cell viability.

[4] = test system: TH-positive neurons in the SNpc; type: in vivo, C57BL/6 mice; settings: 10 mg/kg/day i.g. positive control, then MPTP
Protocol: Male C57BL/6 mice (20±2 g body weight, 6-8 weeks of age) were purchased from the Laboratory Animal Center of Guangdong Province and were fed six animals per cage, under a 12 h light/dark cycle with ad libitum access to food and water. Mice were handled daily and allowed 3 days to acclimate before each treatment. Six groups of mice (n=7/group, total 42 mice) were assigned for the neuroprotective study in vivo. SchiA at different concentrations (30, 100 or 300 mg/kg/day), positive control drug (Selegiline, 10 mg/kg/day) or vehicle (Tween-80/ml propylene glycol/alcohol/5% PVA, 1:1:1:17, v/v/v/v) were administered by intragastric gavage (i.g.) daily for 14 days. Then mice were injected by intraperitoneal (i.p.) with 30 mg/kg MPTP hydrochloride (Sigma-Aldrich) or physiological saline daily on days 15-19 (total 5 days). In order to allow for the full conversion of MPTP to its active metabolite MPP^+, a further 3 days of resting period followed (Levites, Weinreb et al. 2001). All animal experiments were conducted according to the ethical guidelines for animal experiment of Jinan University. The experimental protocols were approved by the Ethics Committee for Animal Experiments of Jinan University (permit number 20110810).
Three days after MPTP treatment, animals were anesthetized by i.p. administration of […] chloral hydrate (10% (w/v) dissolved in distilled water) and perfused intracardially with 100 mL PBS (0.1 mmol/L, pH 7.4) followed by 150 mL 4% paraformaldehyde (PFA) in PBS. After intracardial perfusion, brains were collected and post-fixed in 4% PFA for another 24 h at 4° C., embedded in paraffin, and cut into 6 μm coronal sections encompassing the entire SNpc. As the decrease of TH-positive neurons in response to MPTP treatment is the most prominent at medial levels of the SNpc (Hayley, Crocker et al. 2004), the inventors selected the sections from the area encompassed between −3.08 and −3.20 from bregma to perform immunohistochemisty. Immunohistochemistry of brain tissues was performed as previously described (He, Yamauchi et al. 2008; Yokoyama, Takagi et al. 2008) with minor modifications. Sections were deparaffinized in xylene and rehydrated in a graded ethanol series. […] Non-specific protein binding was blocked with 10% bovine serum in PBS (0.01 M, pH 7.4). Between each treatment, the slides were washed at least three times with deionized water for 5 minutes. […] The results were analyzed by counting the numbers of TH-positive cells at ×10 magnifications on a stereomicroscope (BX51, Olympus Corp. Japan). TH-positive cells in 6 position-matched sections of each mouse were counted manually by operator who was blinded to the drug treatment. […]

Compound | protection against 6-OHDA-induced damage (cell viability) (SH-SY5Y cells [2]) | protection against MPP+-induced cell damage (cell viability) (SH-SY5Y cells [3]) | CC50 (SH-SY5Y cells [1]) | further results
N[C@@H](Cc1ccc(O)c(O)c1)C(=O)O [L-dopa] | – | – | – | deficit of locomotor activity of 6-OHDA-treated zebrafish (zebrafish larvae; 150 μM positive control with 6-OHDA): rescued the deficit of locomotor activity of 6-OHDA-treated zebrafish to normal
CN1Cc2c(N)cccc2C(c2ccccc2)C1 (stereo not shown) [Nomifensine, nomifensine, reference compound] | – | – | – | 6-OHDA-induced dopaminergic neuron loss (area of TH+ cells) (DA neurons in zebrafish): considerable protection; deficit of locomotor activity of 6-OHDA-treated zebrafish (zebrafish larvae; 3 μM positive control with 6-OHDA): rescued the deficit of locomotor activity of 6-OHDA-treated zebrafish to normal
COc1c2c(cc3c1-c1c(cc4c(c1OC)OCO4)C[C@H](C)[C@H](C)C3)OCO2 [SC, Schizandrin C] | protected SH-SY5Y cells against 6-OHDA-induced damage in a dose-dependent manner | protect against MPP^+-induced cell damage in a dose-dependent manner | – | CC50 (SH-SY5Y cells [1]; treated 12 h, MTT, read-out: LC50 (the source's name)): 135 µM; EC50 (SH-SY5Y cells [2]; pre-treated 12 h, then 400 μM 6-OHDA 4 h): 15.3 µM; EC50 (SH-SY5Y cells [3]; pre-treated 12 h, then 2 mM MPP+ 36 h): 15.3 µM
COc1cc2c(c(OC)c1OC)-c1c(cc(OC)c(OC)c1OC)C[C@H](C)[C@H](C)C2 [Schizandrin A, reference compound] | did not show protective effects | did not show protective effects | 233 µM | –
COc1cc2c(c(OC)c1OC)-c1c(cc3c(c1OC)OCO3)CC(C)C(C)C2 (stereo not shown) [Schizandrin B, reference compound] | did not show protective effects | did not show protective effects | 189 µM | –
COc1cc2c(c(OC)c1OC)-c1c(cc(OC)c(OC)c1OC)C[C@](C)(O)[C@@H](C)C2 [Schizandrol A, reference compound] | did not show protective effects | did not show protective effects | 155 µM | –
C#CCN(C)[C@H](C)Cc1ccccc1 [selegiline, reference compound] | – | – | – | TH-positive neurons in SNpc [4]: 80±15 cells/section
AKT inhibitor IV [reference compound] | – | – | – | effect on the protective effect of SchiA on MPP+-induced cytotoxicity (SH-SY5Y cells [3]; 2 μM 1 h pre-incubation, then SchiA 12 h, 2 mM MPP+ 36 h, MTT): clearly abrogate the protective effect of SchiA
